The record followed here is ChEMBL document CHEMBL5385890, “A JAK tyrosine kinase and pseudokinase Co-inhibition strategy combines enhanced potency and on-demand activation” (Eur J Med Chem, 2023).

pIC50: −log10 of the molar value. Calls of active or inactive are those of the source. The rule behind the calls is not given here.

Series [1] concerns HEL. Description: Cytotoxicity against HEL cells assessed as inhibition of cell growth. Format: functional, cell-based. The settings on record: Homo sapiens.
Series [2] is described as follows: Stability of compound in PBS measured after 24 hrs. Format: physicochemical. The settings on record: buffer, 24 h.
Series [3] in a line: Stability of compound in mouse plasma measured after 24 hrs. Format: ADME, cell-free. Particulars: 24 h.
Series [4] is described as follows: Stability of compound in human plasma measured after 24 hrs. Particulars: 24 h. In kind it is ADME, cell-free.
The nature of series [5]: Cytotoxicity against HUVEC cells assessed as inhibition of cell growth. Format: toxicity, cell-based. Particulars: human.
Series [6] in a line: Prodrug release in PBS buffer in presence of NADH and nitroreductase assessed as N-tert-butyl-3-[[5-methyl-2-(4-piperazin-1-ylanilino)pyrimidin-4-yl]amino]benzenesulfonamide formation at 10 uM and measured after 120 mins under hypoxic condition by LC-MS/MS analysis. In kind it is ADME. The settings on record: 2 h.
A short description of series [7]: Prodrug release in PBS buffer in presence of NADH and nitroreductase assessed as 3-cyclopropyl-1-(3-{5-[(morpholin-4-yl)methyl]-1H-1,3-benzodiazol-2-yl}-1H-pyrazol-4-yl)urea formation at 10 uM measured after 120 mins under hypoxic condition by LC-MS/MS analysis. Particulars: 2 h. Format: ADME.
The nature of series [8]: Prodrug release in HEL cells assessed as N-tert-butyl-3-[[5-methyl-2-(4-piperazin-1-ylanilino)pyrimidin-4-yl]amino]benzenesulfonamide formation at 1 uM incubated for 24 hrs under hypoxic condition by LC-MS/MS analysis. Format: ADME, cell-based. The settings on record: human.
Series [9] can be described thus: Prodrug release in HEL cells assessed as 3-cyclopropyl-1-(3-{5-[(morpholin-4-yl)methyl]-1H-1,3-benzodiazol-2-yl}-1H-pyrazol-4-yl)urea formation at 1 uM incubated for 24 hrs under hypoxic condition by LC-MS/MS analysis. In kind it is ADME, cell-based. The settings on record: human.
Series [10] has as its system HEL. Description: Cytotoxicity against HEL cells assessed as inhibition of cell growth incubated under hypoxic condition. Format: functional, cell-based. The settings on record: Homo sapiens.
Series [11] concerns HEL. Description: Cytotoxicity against HEL cells assessed as inhibition of cell growth incubated under normoxic condition. Format: functional, cell-based. Particulars: Homo sapiens.
The test system of series [12] is HEL. Description: Inhibition of JAK/STAT phosphorylation in HEL cells assessed as reduction in STAT3 phosphorylation at 3 uM incubated under hypoxic condition by Western blot analysis. Format: cell-based. Particulars: Homo sapiens.
The test system of series [13] is HEL. Description: Inhibition of JAK/STAT phosphorylation in HEL cells assessed as reduction in STAT5 phosphorylation at 3 uM incubated under hypoxic condition by Western blot analysis. In kind it is cell-based. The settings on record: Homo sapiens. For orientation: A western blot detects proteins with antibodies after separation by electrophoresis.
For series [14], the system named is HEL. Description: Inhibition of JAK/STAT phosphorylation in HEL cells assessed as reduction in STAT3 phosphorylation at 3 uM incubated under normoxic condition by Western blot analysis. Format: cell-based. The settings on record: Homo sapiens.
In series [15] the test system is HEL. The series is described as follows: Inhibition of JAK/STAT phosphorylation in HEL cells assessed as reduction in STAT5 phosphorylation at 3 uM incubated under normoxic condition by Western blot analysis. The settings on record: Homo sapiens. Format: cell-based.
The subject of series [16] is HEL. Description: Antitumor activity against HEL cells xenografted in Balb/c nude mouse assessed as tumor growth inhibition at 40 mg/kg, ip administered once daily for 14 consecutive days relative to control. Format: functional, Homo sapiens. The settings on record: 336 h, time 14 day, read-out: TGI.
The test system of series [17] is HEL. The series is described as follows: Antitumor activity against HEL cells xenografted in Balb/c nude mouse assessed as tumor growth inhibition at 80 mg/kg, ip administered once daily for 14 consecutive days relative to control. Format: functional, Homo sapiens. The settings on record: 336 h, time 14 day, read-out: TGI.
Series [18] concerns HEL. Description: Antitumor activity against HEL cells xenografted in Balb/c nude mouse assessed as induction of apoptosis in tumor at 40 to 80 mg/kg, ip administered once daily for 14 consecutive days by TUNEL assay relative to control. Format: functional, organism-based. The settings on record: Homo sapiens, dose 40-80 mg/kg, time 14.0 day.
Series [19] is described as follows: Toxicity in Balb/c nude mouse xenografted with HEL cells assessed as reduction in body weight at 40 to 80 mg/kg, ip administered for 14 consecutive days. Format: organism-based. Particulars: in vivo, 336 h, dose 40-80 mg/kg, time 14 day.
The test system of series [20] is Mus musculus. Description: In vivo inhibition of JAK/STAT signalling in Balb/c nude mouse xenografted with HEL cells assessed as reduction in STAT3 phosphorylation in heart at 40 to 80 mg/kg, ip administered for 14 consecutive days by Western blot analysis. In kind it is functional, organism-based. Particulars: dose 40-80 mg/kg, time 14.0 day.
The subject of series [21] is Mus musculus. The series is described as follows: In vivo inhibition of JAK/STAT signalling in Balb/c nude mouse xenografted with HEL cells assessed as reduction in STAT5 phosphorylation in heart at 40 to 80 mg/kg, ip administered for 14 consecutive days by Western blot analysis. Format: functional, organism-based. The settings on record: dose 40-80 mg/kg, time 14.0 day.

Series [22] has as its system Mus musculus. The series is described as follows: In vivo inhibition of JAK/STAT signalling in Balb/c nude mouse xenografted with HEL cells assessed as reduction in STAT3 phosphorylation in liver at 40 to 80 mg/kg, ip administered for 14 consecutive days by Western blot analysis. Format: functional, organism-based. The settings on record: dose 40-80 mg/kg, time 14.0 day.

Series [23] relates to Mus musculus. Description: In vivo inhibition of JAK/STAT signalling in Balb/c nude mouse xenografted with HEL cells assessed as reduction in STAT5 phosphorylation in liver at 40 to 80 mg/kg, ip administered for 14 consecutive days by Western blot analysis. Format: functional, organism-based. Particulars: dose 40-80 mg/kg, time 14.0 day.
In series [24] the test system is Mus musculus. The series is described as follows: In vivo inhibition of JAK/STAT signalling in Balb/c nude mouse xenografted with HEL cells assessed as reduction in STAT3 phosphorylation in spleen at 40 to 80 mg/kg, ip administered for 14 consecutive days by Western blot analysis. Particulars: dose 40-80 mg/kg, time 14.0 day. In kind it is functional, organism-based.

The test system of series [25] is Mus musculus. Description: In vivo inhibition of JAK/STAT signalling in Balb/c nude mouse xenografted with HEL cells assessed as reduction in STAT5 phosphorylation in spleen at 40 to 80 mg/kg, ip administered for 14 consecutive days by Western blot analysis. Format: functional, organism-based. The settings on record: dose 40-80 mg/kg, time 14.0 day.
Series [26] deals with Mus musculus. Description: In vivo inhibition of JAK/STAT signalling in Balb/c nude mouse xenografted with HEL cells assessed as reduction in STAT3 phosphorylation in lung at 40 to 80 mg/kg, ip administered for 14 consecutive days by Western blot analysis. In kind it is functional, organism-based. The settings on record: dose 40-80 mg/kg, time 14.0 day.
For series [27], the system named is Mus musculus. Description: In vivo inhibition of JAK/STAT signalling in Balb/c nude mouse xenografted with HEL cells assessed as reduction in STAT5 phosphorylation in lung at 40 to 80 mg/kg, ip administered for 14 consecutive days by Western blot analysis. In kind it is functional, organism-based. The settings on record: dose 40-80 mg/kg, time 14.0 day.
Series [28] concerns Mus musculus. The series is described as follows: In vivo inhibition of JAK/STAT signalling in Balb/c nude mouse xenografted with HEL cells assessed as reduction in STAT3 phosphorylation in kidney at 40 to 80 mg/kg, ip administered for 14 consecutive days by Western blot analysis. Format: functional, organism-based. The settings on record: dose 40-80 mg/kg, time 14.0 day.
In series [29] the test system is Mus musculus. The series is described as follows: In vivo inhibition of JAK/STAT signalling in Balb/c nude mouse xenografted with HEL cells assessed as reduction in STAT5 phosphorylation in kidney at 40 to 80 mg/kg, ip administered for 14 consecutive days by Western blot analysis. In kind it is functional, organism-based. The settings on record: dose 40-80 mg/kg, time 14.0 day.

Series [30] deals with HEL. The series is described as follows: Cytotoxicity against HEL cells assessed as inhibition of cell growth irradiated with 450 nm light and incubated in presence of N-tert-butyl-3-[[5-methyl-2-(4-piperazin-1-ylanilino)pyrimidin-4-yl]amino]benzenesulfonamide. The settings on record: Homo sapiens, light or radiation study. In kind it is functional, cell-based.
Series [31] deals with HEL. Description: Cytotoxicity against HEL cells assessed as inhibition of cell growth incubated under dark condition in presence of N-tert-butyl-3-[[5-methyl-2-(4-piperazin-1-ylanilino)pyrimidin-4-yl]amino]benzenesulfonamide. The settings on record: Homo sapiens. In kind it is functional, cell-based.
The test system of series [32] is HEL. The series is described as follows: Cytotoxicity against HEL cells assessed as inhibition of cell growth incubated under hypoxic condition in presence of N-tert-butyl-3-[[5-methyl-2-(4-piperazin-1-ylanilino)pyrimidin-4-yl]amino]benzenesulfonamide. Format: functional, cell-based. Particulars: Homo sapiens.
In series [33] the test system is HEL. Description: Cytotoxicity against HEL cells assessed as inhibition of cell growth incubated under normoxic condition in presence of N-tert-butyl-3-[[5-methyl-2-(4-piperazin-1-ylanilino)pyrimidin-4-yl]amino]benzenesulfonamide. The settings on record: Homo sapiens. Format: functional, cell-based.
The test system of series [34] is HEL. Description: Cytotoxicity against HEL cells assessed as inhibition of cell growth incubated under normoxic condition in presence of 3-cyclopropyl-1-(3-{5-[(morpholin-4-yl)methyl]-1H-1,3-benzodiazol-2-yl}-1H-pyrazol-4-yl)urea. In kind it is functional, cell-based. The settings on record: Homo sapiens.
The test system of series [35] is HEL. The series is described as follows: Antitumor activity against HEL cells xenografted in Balb/c nude mouse assessed as tumor growth inhibition at 25 mg/kg, ip administered once daily for 14 consecutive days relative to control. Particulars: 336 h, time 14 day, read-out: TGI. In kind it is functional, Homo sapiens.
Series [36] relates to HEL. Description: Antitumor activity against HEL cells xenografted in Balb/c nude mouse assessed as tumor growth inhibition at 25 mg/kg, ip administered once daily for 14 consecutive days in presence of N-tert-butyl-3-[[5-methyl-2-(4-piperazin-1-ylanilino)pyrimidin-4-yl]amino]benzenesulfonamide relative to control. Format: functional, Homo sapiens. The settings on record: 336 h, time 14 day, read-out: TGI.

The subject of series [37] is HEL. Description: Antitumor activity against HEL cells xenografted in Balb/c nude mouse assessed as induction of apoptosis in tumor at 25 mg/kg, ip administered once daily for 14 consecutive days in presence of N-tert-butyl-3-[[5-methyl-2-(4-piperazin-1-ylanilino)pyrimidin-4-yl]amino]benzenesulfonamide by TUNEL assay relative to control. The settings on record: Homo sapiens, time 14.0 day. In kind it is functional, organism-based.

As usually defined, the pIC50 is −log10 of the IC50, conventionally taken in molar units. On to `CC[C@@](C)(Nc1ccnc(-c2c[nH]c3ncccc23)n1)C(=O)NCC(F)(F)F` [DECERNOTINIB], for which, in the series with HEL [1], the pIC50 was 5.59.

With `N#CC[C@H](C1CCCC1)n1cc(-c2ncnc3[nH]ccc23)cn1` [RUXOLITINIB], in the series with HEL [1], the negative-log IC50 (pIC50) was 5.13.

With `Cc1cc(COC(=O)N2CCN(c3ccc(Nc4ncc(C)c(Nc5cccc(S(=O)(=O)NC(C)(C)C)c5)n4)cc3)CC2)c(OCc2cnc([N+](=O)[O-])n2C)c(COC(=O)n2cc(NC(=O)NC3CC3)c(-c3nc4cc(CN5CCOCC5)ccc4[nH]3)n2)c1`, the Stability entry in series [2], in series [3] and in [4] was “Stable” throughout. Also, the pIC50 in series [5] is 4.07; in the series on HEL [10], 5.51; with HEL [11], less than 3.70. Besides, the Drug metabolism in series [6] is 6.57 µM; in [7], 6.49 µM; in series [8], “Metabolite_Detected”; in series [9], “Metabolite_Detected”. Further, the inhibition entry in the series on HEL [12] and in the series on HEL [13] was “Active” throughout. For the same molecule, the inhibition result with HEL [14], with HEL [15], in the series with Mus musculus [20], in the series with Mus musculus [21], in the series on Mus musculus [22] and in the series on Mus musculus [23] was “inactive” each time. In addition, the inhibition entry in the series with Mus musculus [24], with Mus musculus [25], in the series on Mus musculus [26], in the series on Mus musculus [27], in the series with Mus musculus [28] and with Mus musculus [29] was “inactive” in each case. Further, in the series with HEL [16], the inhibition in vivo at 40 mg/kg amounted to 59.8%. Further, the inhibition in vivo at 80 mg/kg in the series with HEL [17] turned out to be 88.9%. For the same molecule, the result in the series on HEL [18] was Active. Besides, the Activity result in series [19] is “Non-Toxic”.

On to `O=C(Nc1c[nH]nc1-c1nc2ccc(CN3CCOCC3)cc2[nH]1)NC1CC1` [AT-9283], for which the negative-log IC50 (pIC50) with HEL [30] is 5.66; in the series on HEL [31], 5.85; in the series on HEL [32], 5.87; with HEL [33] it was 6.19; with HEL [34] it was 6.19; with HEL [1], 5.98. Further, the inhibition in vivo at 25 mg/kg with HEL [35] was found to be 85.9%; in the series on HEL [36] it was 91.2%. Further, the outcome with HEL [37] was Active.
